Data on 26 molecules can be found in ChEMBL document CHEMBL1148992, “KB cell culture I. Role in discovery of antitumor agents from higher plants” (1982).

In brackets after ≈: the same amount, converted by molar mass. A value given as a limit tells only on which side of the number the result lay.

The test system of one test is KB. In words: Cytotoxicity against human KB cells. Type of test: functional. To be noted: read-out: ED50 (the source's name).
For the molecule `C[C@H]1C(=O)O[C@@H]2CCN3CC=C(COC(=O)[C@](C)(O)[C@]1(C)O)[C@H]23` [MONOCROTALINE], the EC50 was more than 100 mg/L. On the same count and under the same terms, the result for `COc1ccc2[nH]c3c(C)c4ccncc4c(C)c3c2c1` reads 8.7 mg/L (≈ 31.5 µM); that for `COc1cc2cc(c1Cl)N(C)C(=O)C[C@H](OC(=O)[C@H](C)N(C)C(C)=O)[C@]1(C)O[C@H]1[C@H](C)[C@@H]1C[C@@](O)(NC(=O)O1)[C@H](OC)/C=C/C=C(\C)C2` [MAYTANSINE], 0.51 mg/L (≈ 0.737 µM); that for `CC[C@H]1CN2CCc3cc(OC)c(OC)cc3[C@@H]2C[C@@H]1C[C@H]1NCCc2cc(OC)c(OC)cc21` [EMETINE], less than 1 mg/L. For `Cc1c2ccncc2c(C)c2c1[nH]c1ccccc12` [ELLIPTECINE], the EC50 is 0.36 mg/L (≈ 1.46 µM). Still for that read-out and setting: the result for `CC(=O)O[C@H]1C(=O)[C@@]2(C)[C@H]([C@H](OC(=O)c3ccccc3)[C@]3(O)C[C@H](OC(=O)[C@H](O)[C@@H](NC(=O)c4ccccc4)c4ccccc4)C(C)=C1C3(C)C)[C@]1(OC(C)=O)CO[C@@H]1C[C@@H]2O` [PACLITAXEL] reads 8.9 mg/L (≈ 10.4 µM); that for `COc1cc(C[C@H]2c3cc(OC)c(OC)cc3CCN2C)c(Oc2cc3c(cc2OC)-c2c(OC)c(OC)cc4c2[C@H](C3)N(C)CC4)cc1OC` [THALICARPINE], 3.7 mg/L (≈ 5.31 µM); that for `CC[C@]1(O)C[C@H]2CN(CCc3c([nH]c4ccccc34)[C@@](C(=O)OC)(c3cc4c(cc3OC)N(C=O)[C@H]3[C@@](O)(C(=O)OC)[C@H](OC(C)=O)[C@]5(CC)C=CCN6CC[C@]43[C@@H]65)C2)C1` [VINCRISTINE], 1.3 mg/L (≈ 1.58 µM). On the same count and under the same terms, the result for `CC(C)[C@]12O[C@H]1[C@@H]1O[C@]13[C@]1(O[C@H]1C[C@H]1C4=C(CC[C@@]13C)C(=O)OC4)[C@@H]2O` [TRIPTOLIDE] reads 2.6 mg/L (≈ 7.21 µM); that for `CN[C@H]1CCc2cc(OC)c(OC)c(OC)c2-c2ccc(OC)c(=O)cc21` [DEMECOLCINE], less than 0.25 mg/L. On the same count and under the same terms, then `COC(=O)[C@@]12OC[C@]34[C@H]([C@@H](O)[C@@H]1O)[C@@]1(C)CC(=O)C(O)=C(C)[C@@H]1C[C@H]3OC(=O)[C@H](OC(=O)/C=C(\C)C(C)C)[C@@H]24` [BRUCEANTIN], with 17 mg/L (≈ 31 µM); and `CC[C@@]1(O)C(=O)OCc2c1cc1n(c2=O)Cc2cc3ccccc3nc2-1` [CAMPTOTHECIN], with 2.3 mg/L (≈ 6.6 µM). `COC(=O)C[C@](O)(CCCC(C)(C)O)C(=O)O[C@@H]1C(OC)=C[C@]23CCCN2CCc2cc4c(cc2[C@H]13)OCO4` [OMACETAXINE MEPESUCCINATE]: the EC50 was found to be 3.9 mg/L (≈ 7.15 µM). The same measure, in the same setting: then `COc1cc2c(c(OC)c1OC)-c1ccc(OC)c(=O)cc1[C@@H](NC(C)=O)CC2` [COLCHICINE], with 0.23 mg/L (≈ 0.576 µM); and `COc1ccc2cc1Oc1ccc(cc1)C[C@H]1c3cc(c(OC)cc3CCN1C)Oc1c(OC)c(OC)cc3c1C(C2)N(C)CC3` (mixture of isomers), with 22 mg/L. On the same count and under the same terms, the result for `COc1ccc2cc1Oc1ccc(cc1)C[C@H]1c3cc(c(OC)cc3CCN1C)Oc1c(OC)c(OC)cc3c1[C@@H](C2)N(C)CC3` reads 10 mg/L (≈ 16.1 µM); that for `CC(C)[C@]12O[C@H]1[C@@H]1O[C@]13[C@]1(O[C@H]1C[C@H]1C4=C(C(=O)OC4)[C@@H](O)C[C@@]13C)[C@@H]2O` [TRIPDIOLIDE], 2.8 mg/L (≈ 7.44 µM). Turning to `CC(=O)O[C@H]1C(=O)O[C@@H]2C[C@H]3C(C)=CC(=O)[C@@H](O)[C@]3(C)[C@H]3[C@]4(O)OC[C@]32[C@@H]1[C@@H](C)[C@H]4O` [HOLACANTHONE], the EC50 is 6.8 mg/L (≈ 15.6 µM).

As to `COc1cc2c[n+](C)c3c4cc5c(cc4ccc3c2cc1OC)OCO5.[Cl-]` [NITIDINE CHLORIDE], the EC50 is 4.3 mg/L. On to `COc1ccc(C[C@H]2C(=O)N[C@@H](C)C(=O)N(C)[C@@H]3C(=O)N(C)[C@@H](Cc4ccc(O)c(c4)Oc4ccc(cc4)[C@@H]3O)C(=O)N[C@@H](C)C(=O)N[C@@H](C)C(=O)N2C)cc1` [BOUVARDIN], for which the EC50 was found to be 8.8 mg/L (≈ 11.4 µM). `COc1cc([C@@H]2c3cc4c(cc3[C@H](O)[C@H]3COC(=O)[C@H]23)OCO4)cc(OC)c1OC` [PODOFILOX]: the EC50 is less than 1 mg/L. `COc1cc2c3c(c4ccc(OC)c(OC)c4c2cc1OC)CN1CCC[C@@H]1C3` [TYLOCREBRINE]: the EC50 came out at 0.013 mg/L (≈ 0.033 µM).

The subject of another test is P388. In words: In vivo cytotoxicity against mouse P388 cells relative to control. The test is classed as functional.
Settings: not given
Consider `COc1cc2c[n+](C)c3c4cc(OC)c(OC)cc4ccc3c2cc1OC`, for which the T/C is 200%. The same measure, in the same setting: the result for `COc1cc2c(ccc3c4cc(OC)c(OC)cc4c[n+](C)c23)cc1O.[Cl-]` [FAGARONINE] reads 270%; that for `CC(C)[C@](O)(C(=O)OCC1=CC[N+]2([O-])CC[C@@H](O)[C@@H]12)[C@H](C)O` (stereo partly specified) [INDICINE N-OXIDE], 262%. On the same count and under the same terms, then `Cc1cc2c(C(C)C)c(O)c(O)c(C=O)c2c(O)c1-c1c(C)cc2c(C(C)C)c(O)c(O)c(C=O)c2c1O` [GOSSYPOL], with 150%.
